Experimental data from patent US20160244452A1, “HETEROCYCLIC COMPOUNDS AND USES THEREOF” (INFINITY PHARMACEUTICALS, INC., priority 2014, published 2016).

Experiments:
δ PI3K = biological target: T1, δ PI3K (Homo sapiens, UniProt O00329); experiment: PI3-Kinase Promega ADP-Glo Max assay, δ isoform; type: biochemical; conditions: 20 nM kinase, 3 mM ATP, 500 uM diC8-PtdInsP
T1 construct: purchased Millipore
Description: (§1) PI3-Kinase Promega™ Assay
(§2) Promega ADP-Glo Max assay kit (Cat. No. V7002) was utilized to determine IC50 values for α, β, δ and γ isoforms of human Class I PI3 kinases (Millipore). Samples of kinase (20 nM α or δ, 40 nM β or γ isoform) were incubated with compound for 15 minutes at room temperature in reaction buffer (15 mM HEPES pH 7.4, 20 mM NaCl, 1 mM EGTA, 0.02% Tween 20, 10 mM MgCl2, 0.2 mg/mL bovine-γ-globulins) followed by addition of ATP/diC8-PtdInsP mixture to give final concentrations of 3 mM ATP and 500 uM diC8-PtdInsP. Reactions were incubated at room temperature for 2 hours followed by addition of 25 uL of stop solution. After a 40-minute incubation at room temperature, 50 uL of Promega detection mix was added followed by incubation for 1 hour at room temperature. Plates were then read on Envision plate reader in luminescence mode. Data was converted to % inhibition using the following equation below: […]
(§3) where S is the sample luminescence, Pos is a positive control without added PI3K, Neg is the negative control without added compound. Data was then plotted as % inhibition vs compound concentration. Data fit to 4 parameter logistic equation to determine IC50 values: […]
(§4) Certain compounds provided herein were tested in PI3-Kinase Promega Assay using procedures as described above to determine IC50 values for α, β, δ and/or γ isoforms.

γ PI3K = biological target: T2, γ PI3K (Homo sapiens, UniProt P48736); experiment: PI3-Kinase Promega ADP-Glo Max assay, γ isoform; type: biochemical; conditions: 40 nM kinase, 3 mM ATP, 500 uM diC8-PtdInsP
T2 construct: purchased Millipore
T2 sequence (P48736 whole entry, canonical isoform): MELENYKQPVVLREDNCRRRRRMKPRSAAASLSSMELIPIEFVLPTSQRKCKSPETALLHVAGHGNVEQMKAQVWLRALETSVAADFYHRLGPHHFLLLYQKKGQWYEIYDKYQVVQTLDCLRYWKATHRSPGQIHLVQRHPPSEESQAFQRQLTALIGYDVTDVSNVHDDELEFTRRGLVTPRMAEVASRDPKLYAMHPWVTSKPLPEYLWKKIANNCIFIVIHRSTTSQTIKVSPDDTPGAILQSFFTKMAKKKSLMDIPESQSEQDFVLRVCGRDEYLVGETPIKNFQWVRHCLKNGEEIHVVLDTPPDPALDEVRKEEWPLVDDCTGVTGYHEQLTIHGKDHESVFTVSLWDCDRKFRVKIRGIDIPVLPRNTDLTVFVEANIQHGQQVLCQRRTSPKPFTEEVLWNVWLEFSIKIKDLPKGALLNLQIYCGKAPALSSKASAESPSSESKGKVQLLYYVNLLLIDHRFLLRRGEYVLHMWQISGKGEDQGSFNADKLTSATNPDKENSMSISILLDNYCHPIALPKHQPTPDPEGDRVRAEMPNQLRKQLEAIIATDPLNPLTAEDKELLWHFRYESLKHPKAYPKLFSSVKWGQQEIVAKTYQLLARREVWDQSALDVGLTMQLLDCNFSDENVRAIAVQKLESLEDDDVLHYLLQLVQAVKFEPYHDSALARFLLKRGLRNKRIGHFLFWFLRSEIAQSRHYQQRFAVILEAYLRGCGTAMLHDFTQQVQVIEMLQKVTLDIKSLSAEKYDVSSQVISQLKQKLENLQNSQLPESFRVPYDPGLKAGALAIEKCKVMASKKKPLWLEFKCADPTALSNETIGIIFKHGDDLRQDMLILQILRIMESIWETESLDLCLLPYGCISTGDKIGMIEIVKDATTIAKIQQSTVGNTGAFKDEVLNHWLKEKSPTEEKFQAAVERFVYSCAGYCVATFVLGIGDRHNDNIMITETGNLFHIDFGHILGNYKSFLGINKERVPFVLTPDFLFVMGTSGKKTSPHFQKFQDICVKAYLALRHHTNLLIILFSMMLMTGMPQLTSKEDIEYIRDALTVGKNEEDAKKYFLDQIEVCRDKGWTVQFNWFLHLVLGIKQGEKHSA
Description: as §1, §2, §3, §4

β PI3K = biological target: T3, β PI3K (Homo sapiens, UniProt P42338); experiment: PI3-Kinase Promega ADP-Glo Max assay, β isoform; type: biochemical; conditions: 40 nM kinase, 3 mM ATP, 500 uM diC8-PtdInsP
T3 construct: purchased Millipore
T3 sequence (P42338 whole entry, canonical isoform): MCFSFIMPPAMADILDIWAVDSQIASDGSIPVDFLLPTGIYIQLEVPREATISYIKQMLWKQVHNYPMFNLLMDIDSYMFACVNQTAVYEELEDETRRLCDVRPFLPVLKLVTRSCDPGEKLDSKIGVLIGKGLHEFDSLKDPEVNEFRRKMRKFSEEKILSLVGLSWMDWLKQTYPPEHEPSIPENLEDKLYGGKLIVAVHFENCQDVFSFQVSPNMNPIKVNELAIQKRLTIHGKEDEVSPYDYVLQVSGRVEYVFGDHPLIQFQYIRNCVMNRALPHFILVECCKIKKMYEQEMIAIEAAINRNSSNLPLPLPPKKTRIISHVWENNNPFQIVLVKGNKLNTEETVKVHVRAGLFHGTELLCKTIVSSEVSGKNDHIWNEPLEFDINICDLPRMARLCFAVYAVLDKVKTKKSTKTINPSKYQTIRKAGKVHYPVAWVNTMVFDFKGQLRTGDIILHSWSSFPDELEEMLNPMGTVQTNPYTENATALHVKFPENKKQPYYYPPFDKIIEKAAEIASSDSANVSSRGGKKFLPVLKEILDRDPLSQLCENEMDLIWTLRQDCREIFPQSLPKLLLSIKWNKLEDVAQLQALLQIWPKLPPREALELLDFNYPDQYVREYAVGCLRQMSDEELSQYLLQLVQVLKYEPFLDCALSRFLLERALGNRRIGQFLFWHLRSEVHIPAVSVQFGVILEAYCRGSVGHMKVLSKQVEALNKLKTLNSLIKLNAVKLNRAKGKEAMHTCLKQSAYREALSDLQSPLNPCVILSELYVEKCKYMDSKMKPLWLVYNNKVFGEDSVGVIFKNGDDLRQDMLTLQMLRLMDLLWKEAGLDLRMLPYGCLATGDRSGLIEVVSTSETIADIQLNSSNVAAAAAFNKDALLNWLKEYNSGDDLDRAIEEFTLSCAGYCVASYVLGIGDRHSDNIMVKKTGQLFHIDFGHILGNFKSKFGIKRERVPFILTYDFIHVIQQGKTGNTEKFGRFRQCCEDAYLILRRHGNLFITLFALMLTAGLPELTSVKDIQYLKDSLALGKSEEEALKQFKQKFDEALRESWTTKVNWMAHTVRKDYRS
T3 sequence (P27986 whole entry partner, canonical isoform): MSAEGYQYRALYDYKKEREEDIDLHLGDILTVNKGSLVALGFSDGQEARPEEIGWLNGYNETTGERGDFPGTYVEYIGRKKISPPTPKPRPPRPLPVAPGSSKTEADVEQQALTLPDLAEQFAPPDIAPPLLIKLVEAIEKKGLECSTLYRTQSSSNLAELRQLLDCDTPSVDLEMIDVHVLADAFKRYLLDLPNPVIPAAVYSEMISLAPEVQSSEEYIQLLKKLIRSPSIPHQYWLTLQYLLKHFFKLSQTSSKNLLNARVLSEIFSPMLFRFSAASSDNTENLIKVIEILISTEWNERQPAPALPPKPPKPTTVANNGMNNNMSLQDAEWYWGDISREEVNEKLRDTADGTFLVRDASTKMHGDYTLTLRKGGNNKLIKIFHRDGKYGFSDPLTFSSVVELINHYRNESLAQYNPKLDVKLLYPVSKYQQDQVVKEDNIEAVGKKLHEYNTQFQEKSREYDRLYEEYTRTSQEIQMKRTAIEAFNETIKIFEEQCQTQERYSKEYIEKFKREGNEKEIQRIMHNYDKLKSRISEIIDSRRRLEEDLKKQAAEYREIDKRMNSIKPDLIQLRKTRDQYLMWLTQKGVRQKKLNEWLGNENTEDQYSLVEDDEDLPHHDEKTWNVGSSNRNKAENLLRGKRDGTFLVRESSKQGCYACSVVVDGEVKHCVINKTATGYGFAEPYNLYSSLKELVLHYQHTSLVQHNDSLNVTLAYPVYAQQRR
Description: as §1, §2, §3, §4

p110 γ = biological target: T4, p110 γ (Mus musculus, UniProt Q9JHG7); experiment: PI3K-γ selective cellular assay: phospho-AKT in C5a stimulated RAW264.7 macrophages; type: cell-based; conditions: serum-starved RAW264.7 cells stimulated with C5a
T4 construct: endogenous in cells; host or cells: RAW264.7 macrophages
Source text: (b) PI3K-γ Selective Assay
A compound's ability in selectively inhibiting PI3K-γ can be assessed using RAW264.7 macrophages. Briefly, serum-starved RAW264.7 cells are stimulated with a known GPCR agonist C5a. See, e.g., Camps et al., Nature Medicine (2005) 11(9):936-943. Cells can be treated with test compounds prior to, simultaneously with, or subsequent to the stimulation by C5a. RAW 264.7 cells respond to the complement component fragment C5a through activation of the C5a receptor, and the C5a receptor activates macrophages and induces cell migration. Test compounds' ability to inhibit C5a-mediated AKT phosphorylation is indicative of selective inhibition of PI3K-γ. Thus, by monitoring the reduction of phospho-AKT in stimulated RAW 264.7 cells (using for example, phospho-AKT antibodies), a compound's potential efficacy in selectively inhibiting PI3Kγ can be assessed.
Certain compounds provided herein were tested in RAW 264.7 cell model using procedures as described above.

p110 δ = biological target: T5, p110 δ (Homo sapiens, UniProt O00329); experiment: PI3K-δ selective cellular assay: phospho-AKT in anti-human IgM stimulated RAJI cells; type: cell-based; conditions: serum-starved RAJI cells stimulated with anti-human IgM
T5 construct: endogenous in cells; host or cells: RAJI cells
T5 sequence (O00329 whole entry): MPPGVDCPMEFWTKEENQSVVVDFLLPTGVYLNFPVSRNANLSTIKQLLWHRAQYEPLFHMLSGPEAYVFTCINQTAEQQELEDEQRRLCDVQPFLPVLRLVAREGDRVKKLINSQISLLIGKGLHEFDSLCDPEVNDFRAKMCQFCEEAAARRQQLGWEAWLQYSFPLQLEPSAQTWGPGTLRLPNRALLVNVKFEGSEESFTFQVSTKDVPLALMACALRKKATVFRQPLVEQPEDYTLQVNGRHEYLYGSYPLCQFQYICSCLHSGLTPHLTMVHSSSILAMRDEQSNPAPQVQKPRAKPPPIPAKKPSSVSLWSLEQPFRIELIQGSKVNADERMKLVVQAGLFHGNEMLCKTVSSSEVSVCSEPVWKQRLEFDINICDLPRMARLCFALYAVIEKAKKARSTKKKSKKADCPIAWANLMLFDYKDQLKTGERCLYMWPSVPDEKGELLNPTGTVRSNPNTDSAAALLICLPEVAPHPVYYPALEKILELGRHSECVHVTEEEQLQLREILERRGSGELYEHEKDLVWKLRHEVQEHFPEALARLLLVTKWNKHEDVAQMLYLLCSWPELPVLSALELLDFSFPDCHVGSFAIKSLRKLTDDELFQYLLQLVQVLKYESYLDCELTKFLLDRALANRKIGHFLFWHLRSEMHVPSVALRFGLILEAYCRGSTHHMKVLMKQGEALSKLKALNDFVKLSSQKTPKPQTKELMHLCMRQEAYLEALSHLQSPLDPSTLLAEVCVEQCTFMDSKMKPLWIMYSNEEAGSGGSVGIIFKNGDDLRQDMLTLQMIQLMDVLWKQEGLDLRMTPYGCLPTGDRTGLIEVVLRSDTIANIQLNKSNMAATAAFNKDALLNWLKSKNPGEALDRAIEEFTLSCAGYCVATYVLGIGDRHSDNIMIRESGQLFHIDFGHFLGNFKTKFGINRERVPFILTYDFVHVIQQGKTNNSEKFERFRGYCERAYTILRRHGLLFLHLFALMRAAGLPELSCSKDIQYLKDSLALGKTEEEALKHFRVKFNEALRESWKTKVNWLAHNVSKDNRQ
T5 sequence (P27986 whole entry partner): as the sequence (P27986 whole entry partner, canonical isoform) above
Source text: (a) PI3K-δ Selective Assay
A compound's ability in selectively inhibiting PI3K-δ can be assessed using RAJI cells, i.e., B lymphocyte cells derived from lymphoma patients. Briefly, serum-starved RAJI cells are stimulated with anti-human IgM, thereby causing signaling through the B-cell receptors, as described in, for example, He et al., Leukemia Research (2009) 33: 798-802. B-cell receptor signaling is important for the activation, differentiation, and survival of B cells and certain B-cell derived cancers. Reduction of phospho-AKT is indicative of compounds that can inhibit B-cell proliferation and function in certain diseases. By monitoring the reduction of phospho-AKT in stimulated RAJI cells (using for example, phospho-AKT antibodies), a compound's potential efficacy in selectively inhibiting PI3Kδ can be assessed.
Certain compounds provided herein were tested in RAJI cell model using procedures as described above.

α PI3K = biological target: T6, α PI3K (Homo sapiens, UniProt P42336); experiment: PI3-Kinase Promega ADP-Glo Max assay, α isoform; type: biochemical; conditions: 20 nM kinase, 3 mM ATP, 500 uM diC8-PtdInsP
T6 construct: purchased Millipore
Description: as §1, §2, §3, §4

BTK or MEK pathway = experiment: Effect on BTK or MEK pathway

T1 sequence (O00329 whole entry, canonical isoform): as the sequence (O00329 whole entry) above
T1 sequence (P27986 whole entry partner, canonical isoform): as the sequence (P27986 whole entry partner, canonical isoform) above

Structure (SMILES)	IC50 (δ PI3K) [nM]	IC50 (γ PI3K) [nM]	IC50 (β PI3K) [nM]	IC50 (p110 γ) [nM]	IC50 (p110 δ) [nM]	IC50 (α PI3K) [nM]	Effect on BTK or MEK pathway (BTK or MEK pathway)
CC[C@H](Nc1ncnc2[nH]cnc12)c1cc2cccc(F)c2c(=O)n1-c1ccccc1 [1 s]	10 to 100	100 to 3500	100 to 3500	100 to 3500	1 to 10	3500 to 10000	–
CCC(Nc1ncnc2[nH]cnc12)c1cc2cccc(F)c2c(=O)n1-c1ccccc1 (stereo not shown) [Compound 1]	–	–	–	–	–	–	does not affect BTK or MEK pathway
C[C@H](Nc1ncnc2[nH]cnc12)c1cc2ccc(F)c(Cl)c2c(=O)n1-c1ccccc1 [96 s]	1 to 10	100 to 3500	100 to 3500	10 to 100	1 to 10	100 to 3500	–
